Test results reported in PMC5705954, “Investigation of Non-Covalent Interactions of Aflatoxins (B1, B2, G1, G2, and M1) with Serum Albumin” (Toxins, 2017).
Read-outs that look alike come from different tables or passages of the source.

What was measured:
[1] = biological target: warfarin-HSA interaction (Sudlow's Site I) (Homo sapiens, UniProt P02768); type: binding
[2] = biological target: porcine serum albumin (PSA) (Sus scrofa, UniProt P08835); type: binding; settings: pH 7.4
[3] = biological target: bovine serum albumin (BSA) (Bos taurus, UniProt P02769); type: binding; settings: pH 7.4
rat serum albumin (RSA) = rat serum albumin (RSA) (Rattus norvegicus, UniProt P02770); type: binding; settings: pH 7.4
[4] = biological target: T1, human serum albumin (HSA) (Homo sapiens, UniProt P02768); test: Thermodynamic studies (van't Hoff) of complex formation with HSA; type: binding; parameters: purchased Sigma-Aldrich
Method: In order to investigate the temperature dependence of AFB1-HSA interaction, binding constants were determined between 25 and 40 °C. […] Using the temperature-dependence of the stability constants, the thermodynamic parameters associated to the interaction of AFB1 with HSA was also determined using the van’t Hoff equation (Equation (5)). […]. This value is within the typical range of non-covalent interactions. ΔH and ΔS values of the AFB1-HSA complex formation were −10.48 kJ mol^−1 and 55.1 JK^−1 mol^−1, respectively. Comparing these values with the parameters obtained for previously examined mycotoxin-albumin complexes, namely citrinin-HSA and zearalenone-HSA (Table 1), we can conclude that the smaller enthalpy change is associated with higher entropy gain in agreement with the enthalpy-entropy compensation. […]
Fluorolog τ3 spectrofluorometric system (Jobin-Yvon/SPEX) was applied during thermodynamic studies using 280 nm excitation wavelength. […] The binding constants were determined by the Hyperquad2006 program package (Equation (4)). The enthalpy and entropy changes of complex formation between AFB1 and HSA molecules were calculated as follows: the logarithms of binding constants (logK) at different temperatures were plotted against the reciprocal temperature according to the van’t Hoff equation. […]

[5] = biological target: T1, human serum albumin (HSA); test: Fluorescence quenching of HSA by aflatoxins; type: binding; parameters: purchased Sigma-Aldrich; settings: pH 7.4
Method: In order to characterize aflatoxin-HSA interactions, fluorescence quenching studies were performed. Increasing aflatoxin concentrations (0–10 μM) were added to a standard amount of HSA (2 μM) then fluorescence emission spectra of HSA were recorded (λexc = 280 nm). […] To exclude the possible involvement of the inner filter effect, fluorescence emission intensities were corrected based on the absorbance of aflatoxins (Equation (1)). […].
Fluorescence measurements were performed employing Hitachi F-4500 fluorescence spectrophotometer. UV-Vis spectra were recorded applying Specord Plus 210 (Analytic Jena AG, Jena, Germany) spectrophotometer. All measurements were carried out at 25 °C.
During fluorescence quenching experiments, emission intensities of albumin were determined in the presence of 2 μM albumin with and without aflatoxins (0–10 μM) using 280 and 334 nm as excitation and emission wavelengths, respectively. Inner filter effects of aflatoxins were eliminated applying the following equation [33]:(1) Icor=Iobs×e^(Aexc+Aem)/2 where Icor and Iobs are the corrected and observed fluorescence emission intensities, respectively; while Aexc and Aem are the absorption of aflatoxins at 280 and 334 nm, respectively.
Complex formations of aflatoxins with albumins were investigated applying the Stern-Volmer equation:(2) I0/I=1+KSV×[Q] where I and I0 denote the fluorescence intensities of albumin with and without aflatoxins, respectively. KSV (with the unit of dm^3/mol) is the Stern-Volmer quenching constant and [Q] is the molar concentration of aflatoxins.
Association constants (Ka) and number of binding sites (n) were determined by linear fitting, employing the double logarithmic Stern-Volmer equation [33]:(3) log(I0−I)/I=logKa+n×log[Q] where I and I0 denote the fluorescence intensities of albumin with and without aflatoxins, respectively; while [Q] is the molar concentration of aflatoxins.
Thereafter, binding constants of aflatoxin-albumin complexes were quantified by Hyperquad2006 program package, assuming 1:1 stoichiometry, (4) I=I0+(IHG−I0)/2⋅[H]0⋅([H]0+[G]0+1/K−([H]0+[G]0+1/K)^2−4⋅[H]0⋅[G]0) where, I0 and I denote the emission intensities of albumin at 334 nm in the absence and presence of aflatoxins, respectively; IHG is the emission intensity of pure aflatoxin-albumin complex at 334 nm (calculated by the Hyperquad2006); K denotes the binding constant (with the unit of dm^3/mol); [H]0 and [G]0 are the total concentrations of albumin and aflatoxin, respectively.

[6] = biological target: T1, human serum albumin (HSA); settings: cited from earlier work
[7] = biological target: T1, human serum albumin (HSA); parameters: purchased Sigma-Aldrich; settings: cited from earlier work
[8] = previously reported data ref 16
[9] = previously reported data ref 20

Sequence of rat serum albumin (RSA) (P02770 25-608 limits assumed): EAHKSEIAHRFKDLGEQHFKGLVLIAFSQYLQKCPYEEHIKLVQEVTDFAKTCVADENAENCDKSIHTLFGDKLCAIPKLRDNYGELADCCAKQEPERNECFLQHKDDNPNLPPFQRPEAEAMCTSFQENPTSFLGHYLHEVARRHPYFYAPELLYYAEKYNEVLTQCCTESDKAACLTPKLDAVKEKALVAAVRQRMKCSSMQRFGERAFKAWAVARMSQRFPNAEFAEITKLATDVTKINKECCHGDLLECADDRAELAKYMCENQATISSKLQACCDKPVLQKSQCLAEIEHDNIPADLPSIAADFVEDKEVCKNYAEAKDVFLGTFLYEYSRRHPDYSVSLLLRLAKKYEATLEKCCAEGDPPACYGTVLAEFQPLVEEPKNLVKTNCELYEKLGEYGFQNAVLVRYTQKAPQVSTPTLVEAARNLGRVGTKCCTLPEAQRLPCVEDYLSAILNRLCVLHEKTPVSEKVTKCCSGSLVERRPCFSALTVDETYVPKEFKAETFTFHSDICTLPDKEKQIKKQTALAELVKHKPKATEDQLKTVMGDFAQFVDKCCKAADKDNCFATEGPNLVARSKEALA
Sequence of porcine serum albumin (PSA) (P08835 25-607 limits assumed): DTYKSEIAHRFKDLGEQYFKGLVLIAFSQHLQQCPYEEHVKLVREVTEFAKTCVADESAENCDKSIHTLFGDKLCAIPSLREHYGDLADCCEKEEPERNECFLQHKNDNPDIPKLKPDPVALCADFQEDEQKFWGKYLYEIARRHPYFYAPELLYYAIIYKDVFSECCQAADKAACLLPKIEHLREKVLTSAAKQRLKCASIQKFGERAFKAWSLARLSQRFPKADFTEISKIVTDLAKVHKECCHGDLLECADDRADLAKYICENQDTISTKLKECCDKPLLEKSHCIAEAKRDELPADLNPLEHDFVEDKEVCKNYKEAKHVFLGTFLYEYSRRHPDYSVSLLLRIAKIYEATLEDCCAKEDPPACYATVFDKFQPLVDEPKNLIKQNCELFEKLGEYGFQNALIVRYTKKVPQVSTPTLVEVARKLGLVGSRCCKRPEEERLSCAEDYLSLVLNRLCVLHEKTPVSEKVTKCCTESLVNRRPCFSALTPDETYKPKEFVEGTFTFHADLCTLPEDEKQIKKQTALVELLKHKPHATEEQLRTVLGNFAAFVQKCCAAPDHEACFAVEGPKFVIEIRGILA
Sequence of warfarin-HSA interaction (Sudlow's Site I) (P02768 25-609 limits assumed): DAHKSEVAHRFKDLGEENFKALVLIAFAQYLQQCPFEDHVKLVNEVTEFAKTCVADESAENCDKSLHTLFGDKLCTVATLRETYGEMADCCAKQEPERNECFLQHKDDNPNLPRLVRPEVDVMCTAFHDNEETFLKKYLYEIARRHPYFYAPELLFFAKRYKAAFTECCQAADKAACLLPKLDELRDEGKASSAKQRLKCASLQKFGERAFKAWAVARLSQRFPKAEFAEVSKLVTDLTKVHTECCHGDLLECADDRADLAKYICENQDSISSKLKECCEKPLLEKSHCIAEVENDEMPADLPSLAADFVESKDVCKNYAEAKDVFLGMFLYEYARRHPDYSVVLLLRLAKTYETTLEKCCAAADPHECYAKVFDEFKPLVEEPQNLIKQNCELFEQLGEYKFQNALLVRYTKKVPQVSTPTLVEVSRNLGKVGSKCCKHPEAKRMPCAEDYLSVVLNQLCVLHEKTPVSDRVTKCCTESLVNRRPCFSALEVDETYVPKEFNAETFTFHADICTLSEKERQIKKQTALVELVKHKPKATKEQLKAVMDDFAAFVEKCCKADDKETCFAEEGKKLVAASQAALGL
T1 sequence (P02768 25-609): as the sequence (P02768 25-609 limits assumed) above
Sequence of bovine serum albumin (BSA) (P02769 25-607 limits assumed): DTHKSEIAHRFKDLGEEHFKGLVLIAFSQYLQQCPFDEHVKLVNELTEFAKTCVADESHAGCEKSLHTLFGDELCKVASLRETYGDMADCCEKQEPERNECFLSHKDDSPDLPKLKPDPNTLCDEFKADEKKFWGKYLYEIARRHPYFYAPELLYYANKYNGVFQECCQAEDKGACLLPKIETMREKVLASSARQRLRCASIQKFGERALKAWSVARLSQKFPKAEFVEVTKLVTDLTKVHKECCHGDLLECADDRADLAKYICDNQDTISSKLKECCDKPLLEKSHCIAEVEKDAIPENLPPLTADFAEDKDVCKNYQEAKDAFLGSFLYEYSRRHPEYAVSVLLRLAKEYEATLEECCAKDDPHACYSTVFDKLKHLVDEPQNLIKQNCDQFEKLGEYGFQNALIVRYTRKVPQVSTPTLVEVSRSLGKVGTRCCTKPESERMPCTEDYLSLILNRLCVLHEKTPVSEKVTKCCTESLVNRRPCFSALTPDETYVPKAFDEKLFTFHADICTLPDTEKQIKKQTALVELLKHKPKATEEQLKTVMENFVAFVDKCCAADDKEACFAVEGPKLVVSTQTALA

SMILES	effect on fluorescence signal of HSA-bound warfarin at 379 nm (displacement of WAR from HSA) [1]	logK (binding constant) [5]	logKSV (Stern-Volmer quenching constant) [5]	logKa (association constant) [5]	n (number of binding sites) [5]	also measured
COc1cc2c(c3oc(=O)c4c(c13)CCC4=O)[C@H]1C=CO[C@H]1O2 [AFB1, aflatoxin B1]	significant decrease of the fluorescence signal at 379 nm	4.65 ± 0.01	4.44 ± 0.06	4.46 ± 0.08	1.005 ± 0.029	logK (binding constant) [2]: 4.62 ± 0.01; logKSV (Stern-Volmer quenching constant) [2]: 4.45 ± 0.00; logKa (association constant) [2]: 4.52 ± 0.10; n (number of binding sites) [2]: 1.023 ± 0.034; logK (binding constant) [3]: 4.63 ± 0.01; logKSV (Stern-Volmer quenching constant) [3]: 4.41 ± 0.06; logKa (association constant) [3]: 4.44 ± 0.01; n (number of binding sites) [3]: 1.006 ± 0.015; logK (binding constant) (rat serum albumin (RSA)): 4.91 ± 0.01; logKSV (Stern-Volmer quenching constant) (rat serum albumin (RSA)): 4.82 ± 0.01; logKa (association constant) (rat serum albumin (RSA)): 4.90 ± 0.11; n (number of binding sites) (rat serum albumin (RSA)): 0.998 ± 0.051; ΔG (298.16 K) of complex formation with HSA [4]: -6.429 kcal/mol; ΔH of complex formation with HSA [4]: -2.505 kcal/mol
COc1cc2c(c3oc(=O)c4c(c13)CCC4=O)[C@@H]1CCO[C@@H]1O2 [AFB2, aflatoxin B2]	considerably decreased the fluorescence intensity of WAR at 379 nm	4.55 ± 0.01	4.21 ± 0.02	4.40 ± 0.08	1.054 ± 0.000	
COc1cc2c(c3oc(=O)c4c(c13)CCOC4=O)C1C=COC1O2 (stereo not shown) [AFG1, aflatoxin G1]	Very similar spectroscopic changes	4.58 ± 0.01	4.33 ± 0.04	4.43 ± 0.03	1.020 ± 0.019	
COc1cc2c(c3oc(=O)c4c(c13)CCOC4=O)[C@@H]1CCO[C@@H]1O2 [AFG2, aflatoxin G2]	considerably decreased the fluorescence intensity of WAR at 379 nm	4.34 ± 0.01	3.96 ± 0.04	4.04 ± 0.07	1.017 ± 0.025	
COc1cc2c(c3oc(=O)c4c(c13)CCC4=O)[C@@]1(O)C=CO[C@H]1O2 [AFM1, aflatoxin M1]	considerably decreased the fluorescence intensity of WAR at 379 nm	4.52 ± 0.01	4.28 ± 0.01	4.26 ± 0.00	1.004 ± 0.013	
CN(C)c1ccc(N=Nc2ccc(S(=O)(=O)[O-])cc2)cc1.[Na+] [MO, methyl orange]						logK of MO-HSA complex [6]: ~ 5
CC1=C2C(=CO[C@H](C)[C@H]2C)C(O)=C(C(=O)O)C1=O [citrinin]						ΔG (298.16 K) of complex formation with HSA [7, 8]: -7.161 kcal/mol; ΔH of complex formation with HSA [7, 8]: -5.772 kcal/mol; ΔS of complex formation with HSA [7, 8]: 20.90 JK^−1 mol^−1
C[C@H]1CCCC(=O)CCC/C=C/c2cc(O)cc(O)c2C(=O)O1 [zearalenone]						ΔG (298.16 K) of complex formation with HSA [7, 9]: -6.946 kcal/mol; ΔH of complex formation with HSA [7, 9]: -7.192 kcal/mol; ΔS of complex formation with HSA [7, 9]: −3.50 JK^−1 mol^−1
